Read-outs that look alike come from different tables or passages of the source.
Tests used:
[1] = biological target: T1, protein kinases (human kinome) (Homo sapiens, UniProt O14965); type: cell-based; conditions: experiment wp146
T1 sequence (O14965 1-403): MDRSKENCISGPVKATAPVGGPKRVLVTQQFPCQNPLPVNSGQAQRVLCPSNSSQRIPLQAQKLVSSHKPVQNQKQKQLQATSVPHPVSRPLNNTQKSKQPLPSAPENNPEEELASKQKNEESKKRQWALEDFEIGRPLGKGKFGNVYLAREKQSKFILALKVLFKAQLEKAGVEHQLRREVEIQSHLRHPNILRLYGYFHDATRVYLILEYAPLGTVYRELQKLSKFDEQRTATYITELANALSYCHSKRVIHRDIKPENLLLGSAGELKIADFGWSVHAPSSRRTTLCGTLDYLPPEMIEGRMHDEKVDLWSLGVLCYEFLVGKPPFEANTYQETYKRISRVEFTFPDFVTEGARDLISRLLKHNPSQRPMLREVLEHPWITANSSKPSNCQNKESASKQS

[2] = biological target: protein kinases (human kinome) (Homo sapiens, UniProt P06493); type: cell-based; conditions: CDK1 P06493; experiment wp146
[3] = biological target: protein kinases (human kinome) (Homo sapiens, UniProt P24941); type: cell-based; conditions: experiment wp146
[4] = biological target: T2, protein kinases (human kinome) (Homo sapiens, UniProt P33981); type: cell-based; conditions: experiment wp146
T2 sequence (P33981 1-857): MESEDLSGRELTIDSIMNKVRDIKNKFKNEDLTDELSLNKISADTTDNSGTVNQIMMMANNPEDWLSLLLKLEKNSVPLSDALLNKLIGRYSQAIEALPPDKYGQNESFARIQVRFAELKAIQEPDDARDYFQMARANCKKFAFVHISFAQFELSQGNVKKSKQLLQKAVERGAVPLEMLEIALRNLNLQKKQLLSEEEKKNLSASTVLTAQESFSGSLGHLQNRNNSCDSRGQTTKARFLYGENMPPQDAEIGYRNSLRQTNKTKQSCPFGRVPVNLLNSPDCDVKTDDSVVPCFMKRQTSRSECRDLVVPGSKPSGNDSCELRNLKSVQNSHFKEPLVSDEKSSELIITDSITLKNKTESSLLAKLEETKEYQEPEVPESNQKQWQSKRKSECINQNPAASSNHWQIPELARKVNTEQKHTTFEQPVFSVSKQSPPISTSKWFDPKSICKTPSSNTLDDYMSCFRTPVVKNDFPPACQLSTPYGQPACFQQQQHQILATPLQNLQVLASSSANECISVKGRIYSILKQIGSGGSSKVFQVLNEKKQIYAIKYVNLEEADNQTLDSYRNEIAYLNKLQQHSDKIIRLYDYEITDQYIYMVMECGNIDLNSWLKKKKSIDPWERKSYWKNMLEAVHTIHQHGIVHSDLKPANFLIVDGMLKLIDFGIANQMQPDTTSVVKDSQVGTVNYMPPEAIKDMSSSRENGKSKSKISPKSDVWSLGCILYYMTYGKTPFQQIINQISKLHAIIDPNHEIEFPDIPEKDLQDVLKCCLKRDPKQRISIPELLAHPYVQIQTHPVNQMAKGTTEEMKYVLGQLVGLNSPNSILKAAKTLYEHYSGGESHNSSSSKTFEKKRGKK

[5] = biological target: protein kinases (human kinome) (Homo sapiens, UniProt P45984); type: cell-based; conditions: MAPK9 P45984-1; experiment wp146
[6] = biological target: protein kinases (human kinome) (Homo sapiens, UniProt P51812); type: cell-based; conditions: RPS6KA3 (P51812), experiment wp146
[7] = biological target: protein kinases (human kinome) (Homo sapiens, UniProt Q00535); type: cell-based; conditions: experiment wp146
[8] = biological target: protein kinases (human kinome) (Homo sapiens, UniProt Q05397); type: cell-based; conditions: PTK2 Q05397; experiment wp146
[9] = biological target: protein kinases (human kinome) (Homo sapiens, UniProt Q9BYT3); type: cell-based; conditions: STK33 (Q9BYT3-1), experiment wp146
[10] = system: protein kinases (human kinome); type: cell-based
[11] = biological target: T3, protein kinases (human kinome) (Homo sapiens, UniProt O95835); type: cell-based; conditions: LATS1 O95835; experiment wp195
T3 sequence (O95835 1-1130): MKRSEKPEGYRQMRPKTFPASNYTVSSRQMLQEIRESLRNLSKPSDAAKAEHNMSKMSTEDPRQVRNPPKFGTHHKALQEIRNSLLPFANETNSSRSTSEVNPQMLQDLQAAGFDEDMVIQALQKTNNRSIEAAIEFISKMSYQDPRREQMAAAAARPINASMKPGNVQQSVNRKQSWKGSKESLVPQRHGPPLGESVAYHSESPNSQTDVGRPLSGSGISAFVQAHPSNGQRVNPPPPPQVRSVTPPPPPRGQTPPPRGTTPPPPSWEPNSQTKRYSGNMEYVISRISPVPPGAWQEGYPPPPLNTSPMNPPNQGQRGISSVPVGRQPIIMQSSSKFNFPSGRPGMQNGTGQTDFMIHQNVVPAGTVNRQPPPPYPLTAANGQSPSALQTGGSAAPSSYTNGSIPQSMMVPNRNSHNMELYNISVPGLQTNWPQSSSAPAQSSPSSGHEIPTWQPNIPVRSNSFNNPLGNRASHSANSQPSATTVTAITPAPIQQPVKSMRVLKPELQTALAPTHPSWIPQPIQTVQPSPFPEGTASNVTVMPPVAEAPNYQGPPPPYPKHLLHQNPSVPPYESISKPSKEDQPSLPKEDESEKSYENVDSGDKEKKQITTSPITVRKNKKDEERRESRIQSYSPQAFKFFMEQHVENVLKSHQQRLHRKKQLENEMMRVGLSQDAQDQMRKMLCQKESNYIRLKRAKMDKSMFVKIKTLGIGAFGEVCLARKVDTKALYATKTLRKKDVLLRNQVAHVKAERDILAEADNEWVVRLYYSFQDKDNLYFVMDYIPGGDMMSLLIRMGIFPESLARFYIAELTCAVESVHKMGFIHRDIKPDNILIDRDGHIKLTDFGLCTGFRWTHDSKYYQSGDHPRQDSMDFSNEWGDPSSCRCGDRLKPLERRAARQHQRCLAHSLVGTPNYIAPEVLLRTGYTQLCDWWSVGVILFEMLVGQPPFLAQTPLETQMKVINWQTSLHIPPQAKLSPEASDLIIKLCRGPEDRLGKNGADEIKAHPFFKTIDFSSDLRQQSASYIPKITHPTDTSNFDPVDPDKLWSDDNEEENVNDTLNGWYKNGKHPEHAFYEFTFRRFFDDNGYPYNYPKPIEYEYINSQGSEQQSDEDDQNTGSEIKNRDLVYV

[12] = biological target: T4, protein kinases (human kinome) (Homo sapiens, UniProt Q9UEE5); type: cell-based; conditions: STK17A Q9UEE5
T4 sequence (Q9UEE5 1-414): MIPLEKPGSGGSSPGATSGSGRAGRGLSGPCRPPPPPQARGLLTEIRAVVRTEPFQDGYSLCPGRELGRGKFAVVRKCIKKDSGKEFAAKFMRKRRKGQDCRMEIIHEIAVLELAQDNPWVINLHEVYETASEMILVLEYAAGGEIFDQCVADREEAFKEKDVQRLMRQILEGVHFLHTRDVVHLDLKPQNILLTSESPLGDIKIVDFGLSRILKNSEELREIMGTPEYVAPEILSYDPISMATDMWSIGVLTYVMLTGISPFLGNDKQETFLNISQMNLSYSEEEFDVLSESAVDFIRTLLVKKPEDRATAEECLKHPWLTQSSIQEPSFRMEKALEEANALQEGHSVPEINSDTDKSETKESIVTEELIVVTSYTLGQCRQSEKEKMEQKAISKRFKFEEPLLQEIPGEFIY

[13] = biological target: T5, extended human kinome (kinase-like proteins) (Homo sapiens, UniProt Q9UHH9); assay: Whole cell quantitative proteomics: extended kinome hits; conditions: Accession Q9UHH9
T5 sequence (Q9UHH9 1-426): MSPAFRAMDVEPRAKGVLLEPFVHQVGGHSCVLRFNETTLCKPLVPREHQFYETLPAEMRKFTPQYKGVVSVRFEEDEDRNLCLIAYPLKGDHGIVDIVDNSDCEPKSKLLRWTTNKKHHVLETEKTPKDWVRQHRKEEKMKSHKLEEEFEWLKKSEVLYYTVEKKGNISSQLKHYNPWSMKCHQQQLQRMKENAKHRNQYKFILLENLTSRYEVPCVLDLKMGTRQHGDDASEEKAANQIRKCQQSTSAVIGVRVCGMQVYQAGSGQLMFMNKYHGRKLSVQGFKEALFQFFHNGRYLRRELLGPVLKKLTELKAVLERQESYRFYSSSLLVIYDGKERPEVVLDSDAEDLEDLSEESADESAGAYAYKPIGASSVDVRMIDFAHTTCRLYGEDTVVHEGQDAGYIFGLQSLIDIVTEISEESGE
Experimental: Whole cell multiplexed quantitative proteomics was employed to measure changes in abundance of the proteome in response to treatment with each of the kinase degrader molecules relative to DMSO (Table 1, Appendix I).
Cells were treated with DMSO (biological triplicate) or degrader at indicated dose and time and cells were harvested by centrifugation. […] Precipitated protein was resuspended in 4 M Urea, 50 mM HEPES pH 7.4, followed by dilution to 1 M urea with the addition of 200 mM EPPS, pH 8. Proteins were first digested with LysC (1:50: enzyme:protein) for 12 hours at room temperature. The LysC digestion was diluted to 0.5 M Urea with 200 mM EPPS pH 8 followed by digestion with trypsin (1:50; enzyme:protein) for 6 hours at 37° C. Tandem mass tag (TMT) reagents (Thermo Fisher Scientific) were dissolved in anhydrous acetonitrile (ACN) according to manufacturer's instructions. […] The 10, 11, or 16-plex labeling reactions were performed for 1.5 hours at room temperature and the reaction quenched by the addition of hydroxylamine to a final concentration of 0.3% for 15 minutes at room temperature. The sample channels were combined at a 1:1 ratio, desalted using C18 solid phase extraction cartridges (Waters®) and analyzed by LC-MS for channel ratio comparison. Samples were then combined using the adjusted volumes determined in the channel ratio analysis and dried down in a speed vacuum. The combined sample was then resuspended in 1% formic acid, and acidified (pH 2-3) before being subjected to desalting with C18 SPE (Sep-Pak®, Waters®). Samples were then offline fractionated into 96 fractions by high pH reverse-phase HPLC (Agilent® LC1260) through an aeris peptide xb-c18 column (Phenomenex®) with mobile phase A containing 5% acetonitrile and 10 mM NH4HCO3 in LC-MS grade H2O, and mobile phase B containing 90% acetonitrile and 10 mM NH4HCO3 in LC-MS grade H2O (both pH 8.0). The 96 resulting fractions were then pooled in a non-continuous manner into 24 fractions and desalted using C18 solid phase extraction plates (SOLA®, Thermo Fisher Scientific) followed by subsequent mass spectrometry analysis.
Data were collected using an Orbitrap Fusion™ Lumos™ mass spectrometer (Thermo Fisher Scientific, San Jose, CA, USA) coupled with a Proxeon EASY-nLC™ 1200 LC pump (Thermo Fisher Scientific) or an Orbitrap Eclipse™ Tribrid™ mass spectrometer (Thermo Fisher Scientific, San Jose, CA, USA) coupled with an UltiMate™ 3000 RSLCnano System. Peptides were separated on an EasySpray™ ES803a/ES803a.rev2 75 μm inner diameter microcapillary column (ThermoFisher Scientific).
Data dependent MS2 spectra were acquired in the ion trap with a normalized collision energy (NCE) set at 35%, AGC target set to 1.8×10^4 and a maximum injection time of 120 ms. MS3 scans were acquired in the Orbitrap with HCD collision energy set to 55%. AGC target set to 2×10^5, maximum injection time of 150 ms, resolution at 50,000 and with a maximum synchronous precursor selection (SPS) precursors set to 10.
Proteome Discoverer™ 2.1, 2.2 or 2.4 (Thermo Fisher Scientific) was used for .RAW file processing and controlling peptide and protein level false discovery rates, assembling proteins from peptides, and protein quantification from peptides.

[14] = biological target: protein kinases (human kinome) (Homo sapiens, UniProt P11802); type: cell-based; conditions: experiment wp135, 8 hr
[15] = biological target: protein kinases (human kinome) (Homo sapiens, UniProt P31749); type: cell-based
[16] = biological target: protein kinases (human kinome) (Homo sapiens, UniProt P31751); type: cell-based; conditions: AKT2 (P31751), experiment wp135, 8 hr
[17] = biological target: protein kinases (human kinome) (Homo sapiens, UniProt Q9Y243); type: cell-based; conditions: AKT3 (Q9Y243-1), experiment wp135, 8 hr
[18] = biological target: T6, protein kinases (human kinome) (Homo sapiens, UniProt Q969Z0); type: cell-based; conditions: Accession Q969Z0-1; experiment wp084; direction down
T6 sequence (Q969Z0 108-631): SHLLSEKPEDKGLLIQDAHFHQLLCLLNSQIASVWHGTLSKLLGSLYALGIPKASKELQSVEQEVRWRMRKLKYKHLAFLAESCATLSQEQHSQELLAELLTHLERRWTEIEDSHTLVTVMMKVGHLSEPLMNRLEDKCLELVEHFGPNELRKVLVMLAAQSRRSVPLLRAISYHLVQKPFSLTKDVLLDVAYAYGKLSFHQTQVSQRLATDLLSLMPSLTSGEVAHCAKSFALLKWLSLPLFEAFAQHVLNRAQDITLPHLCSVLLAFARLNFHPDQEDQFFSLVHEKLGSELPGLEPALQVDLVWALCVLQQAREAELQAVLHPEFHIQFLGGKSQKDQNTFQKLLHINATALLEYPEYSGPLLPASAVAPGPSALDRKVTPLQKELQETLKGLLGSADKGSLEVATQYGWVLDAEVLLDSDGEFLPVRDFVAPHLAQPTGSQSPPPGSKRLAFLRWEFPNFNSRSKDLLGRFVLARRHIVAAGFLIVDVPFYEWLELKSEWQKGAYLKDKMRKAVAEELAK

[19] = AURKB Q96GD4-5, experiment wp146

protein kinases (human kinome) (Homo sapiens, UniProt Q05397), sequence (Q05397 whole entry): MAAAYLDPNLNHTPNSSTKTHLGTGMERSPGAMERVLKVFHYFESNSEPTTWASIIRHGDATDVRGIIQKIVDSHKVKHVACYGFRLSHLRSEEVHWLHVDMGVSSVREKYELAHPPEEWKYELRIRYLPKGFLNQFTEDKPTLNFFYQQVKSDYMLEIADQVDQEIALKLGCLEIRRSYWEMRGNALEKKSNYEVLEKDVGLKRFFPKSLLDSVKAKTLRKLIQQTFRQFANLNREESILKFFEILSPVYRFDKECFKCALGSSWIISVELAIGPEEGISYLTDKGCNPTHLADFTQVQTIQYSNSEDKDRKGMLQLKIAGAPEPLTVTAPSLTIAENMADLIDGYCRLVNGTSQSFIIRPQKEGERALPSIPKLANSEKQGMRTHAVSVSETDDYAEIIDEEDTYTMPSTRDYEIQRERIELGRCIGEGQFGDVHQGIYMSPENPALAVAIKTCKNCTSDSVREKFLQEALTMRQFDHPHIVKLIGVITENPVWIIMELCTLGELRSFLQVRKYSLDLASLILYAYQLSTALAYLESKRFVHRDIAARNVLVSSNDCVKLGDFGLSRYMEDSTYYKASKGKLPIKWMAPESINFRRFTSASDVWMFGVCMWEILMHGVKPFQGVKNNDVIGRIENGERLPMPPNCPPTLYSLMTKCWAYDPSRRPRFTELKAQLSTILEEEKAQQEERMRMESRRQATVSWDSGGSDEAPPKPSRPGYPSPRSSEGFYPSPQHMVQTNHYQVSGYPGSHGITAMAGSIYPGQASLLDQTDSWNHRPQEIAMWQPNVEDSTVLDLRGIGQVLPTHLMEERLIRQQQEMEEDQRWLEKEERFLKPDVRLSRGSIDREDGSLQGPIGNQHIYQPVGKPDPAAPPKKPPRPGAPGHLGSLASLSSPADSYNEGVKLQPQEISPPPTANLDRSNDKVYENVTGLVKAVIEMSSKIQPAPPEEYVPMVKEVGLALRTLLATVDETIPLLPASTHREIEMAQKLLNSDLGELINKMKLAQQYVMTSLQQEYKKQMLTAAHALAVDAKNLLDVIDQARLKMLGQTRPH
protein kinases (human kinome) (Homo sapiens, UniProt Q00535), sequence (Q00535 whole entry): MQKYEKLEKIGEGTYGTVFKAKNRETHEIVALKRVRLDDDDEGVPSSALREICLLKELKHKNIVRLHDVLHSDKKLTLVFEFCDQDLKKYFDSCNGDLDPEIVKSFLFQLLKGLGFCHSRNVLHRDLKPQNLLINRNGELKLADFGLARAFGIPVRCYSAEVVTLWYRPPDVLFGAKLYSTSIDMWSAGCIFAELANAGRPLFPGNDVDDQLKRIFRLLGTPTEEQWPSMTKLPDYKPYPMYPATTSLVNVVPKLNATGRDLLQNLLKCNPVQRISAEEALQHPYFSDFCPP
protein kinases (human kinome) (Homo sapiens, UniProt P06493), sequence (P06493 whole entry): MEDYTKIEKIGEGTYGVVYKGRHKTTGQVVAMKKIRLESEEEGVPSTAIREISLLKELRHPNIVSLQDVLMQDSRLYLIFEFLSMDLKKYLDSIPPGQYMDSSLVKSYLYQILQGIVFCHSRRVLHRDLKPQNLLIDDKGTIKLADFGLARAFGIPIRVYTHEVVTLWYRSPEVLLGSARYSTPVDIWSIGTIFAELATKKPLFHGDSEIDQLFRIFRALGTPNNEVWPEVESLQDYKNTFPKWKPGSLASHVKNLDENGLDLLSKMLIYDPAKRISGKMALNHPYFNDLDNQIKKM
protein kinases (human kinome) (Homo sapiens, UniProt P31751), sequence (P31751 whole entry): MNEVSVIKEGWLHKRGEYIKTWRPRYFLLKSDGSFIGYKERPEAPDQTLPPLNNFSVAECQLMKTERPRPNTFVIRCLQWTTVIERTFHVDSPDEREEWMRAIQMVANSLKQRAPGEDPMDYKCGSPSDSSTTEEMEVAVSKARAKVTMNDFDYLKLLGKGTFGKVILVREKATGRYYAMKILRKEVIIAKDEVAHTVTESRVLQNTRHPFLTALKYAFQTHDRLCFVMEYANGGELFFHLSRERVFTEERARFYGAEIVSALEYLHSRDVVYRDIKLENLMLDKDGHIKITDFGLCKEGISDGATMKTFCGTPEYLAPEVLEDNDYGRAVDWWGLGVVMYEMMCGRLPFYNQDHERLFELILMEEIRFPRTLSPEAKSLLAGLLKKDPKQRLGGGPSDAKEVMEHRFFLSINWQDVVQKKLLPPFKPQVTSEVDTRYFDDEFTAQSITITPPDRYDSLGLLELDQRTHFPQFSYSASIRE
protein kinases (human kinome) (Homo sapiens, UniProt P11802), sequence (P11802 whole entry): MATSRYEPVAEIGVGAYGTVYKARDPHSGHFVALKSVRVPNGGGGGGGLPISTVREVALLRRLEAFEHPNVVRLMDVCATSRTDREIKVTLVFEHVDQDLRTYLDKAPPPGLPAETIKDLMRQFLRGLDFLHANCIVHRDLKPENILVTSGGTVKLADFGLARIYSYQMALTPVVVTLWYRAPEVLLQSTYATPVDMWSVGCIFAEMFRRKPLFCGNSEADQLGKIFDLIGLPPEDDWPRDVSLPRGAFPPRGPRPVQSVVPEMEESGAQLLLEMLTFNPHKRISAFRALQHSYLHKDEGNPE
protein kinases (human kinome) (Homo sapiens, UniProt P45984), sequence (P45984 whole entry): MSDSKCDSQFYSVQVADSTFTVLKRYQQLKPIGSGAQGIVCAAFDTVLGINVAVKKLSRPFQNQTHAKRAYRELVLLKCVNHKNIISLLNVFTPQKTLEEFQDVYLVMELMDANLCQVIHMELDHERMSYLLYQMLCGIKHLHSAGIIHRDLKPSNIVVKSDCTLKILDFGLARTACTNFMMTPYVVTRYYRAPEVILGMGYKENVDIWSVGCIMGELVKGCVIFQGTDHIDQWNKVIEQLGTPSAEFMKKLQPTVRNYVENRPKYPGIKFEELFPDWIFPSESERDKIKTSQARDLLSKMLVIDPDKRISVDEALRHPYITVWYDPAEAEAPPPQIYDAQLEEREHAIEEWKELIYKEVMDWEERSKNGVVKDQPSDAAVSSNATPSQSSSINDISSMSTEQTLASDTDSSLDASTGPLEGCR
protein kinases (human kinome) (Homo sapiens, UniProt Q9Y243), sequence (Q9Y243 whole entry): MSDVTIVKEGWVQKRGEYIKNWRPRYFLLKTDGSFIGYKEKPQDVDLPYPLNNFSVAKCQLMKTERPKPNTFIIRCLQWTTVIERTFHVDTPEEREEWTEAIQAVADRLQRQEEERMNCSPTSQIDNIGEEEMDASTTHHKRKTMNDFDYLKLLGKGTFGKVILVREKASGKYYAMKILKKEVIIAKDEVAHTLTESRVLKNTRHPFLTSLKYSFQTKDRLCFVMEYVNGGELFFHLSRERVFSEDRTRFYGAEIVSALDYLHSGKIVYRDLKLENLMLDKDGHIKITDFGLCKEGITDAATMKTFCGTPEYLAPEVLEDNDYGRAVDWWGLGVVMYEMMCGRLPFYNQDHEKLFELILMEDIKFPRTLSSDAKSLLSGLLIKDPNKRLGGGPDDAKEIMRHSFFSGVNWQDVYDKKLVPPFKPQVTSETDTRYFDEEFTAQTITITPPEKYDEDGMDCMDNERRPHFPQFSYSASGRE
protein kinases (human kinome) (Homo sapiens, UniProt Q9BYT3), sequence (Q9BYT3 whole entry): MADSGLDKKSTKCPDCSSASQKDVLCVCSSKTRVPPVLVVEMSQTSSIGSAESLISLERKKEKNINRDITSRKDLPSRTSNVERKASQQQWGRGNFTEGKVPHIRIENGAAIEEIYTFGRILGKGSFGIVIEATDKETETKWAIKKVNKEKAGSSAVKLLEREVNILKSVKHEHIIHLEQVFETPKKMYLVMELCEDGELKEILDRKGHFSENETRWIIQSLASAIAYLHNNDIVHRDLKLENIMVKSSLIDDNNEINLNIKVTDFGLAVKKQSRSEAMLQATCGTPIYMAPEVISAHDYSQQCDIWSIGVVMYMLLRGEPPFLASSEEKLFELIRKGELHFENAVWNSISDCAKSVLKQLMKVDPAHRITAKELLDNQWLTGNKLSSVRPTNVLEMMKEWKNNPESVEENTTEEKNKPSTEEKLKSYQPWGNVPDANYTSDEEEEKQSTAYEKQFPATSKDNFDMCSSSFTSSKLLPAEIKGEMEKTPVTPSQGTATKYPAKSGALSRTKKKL
protein kinases (human kinome) (Homo sapiens, UniProt P51812), sequence (P51812 whole entry): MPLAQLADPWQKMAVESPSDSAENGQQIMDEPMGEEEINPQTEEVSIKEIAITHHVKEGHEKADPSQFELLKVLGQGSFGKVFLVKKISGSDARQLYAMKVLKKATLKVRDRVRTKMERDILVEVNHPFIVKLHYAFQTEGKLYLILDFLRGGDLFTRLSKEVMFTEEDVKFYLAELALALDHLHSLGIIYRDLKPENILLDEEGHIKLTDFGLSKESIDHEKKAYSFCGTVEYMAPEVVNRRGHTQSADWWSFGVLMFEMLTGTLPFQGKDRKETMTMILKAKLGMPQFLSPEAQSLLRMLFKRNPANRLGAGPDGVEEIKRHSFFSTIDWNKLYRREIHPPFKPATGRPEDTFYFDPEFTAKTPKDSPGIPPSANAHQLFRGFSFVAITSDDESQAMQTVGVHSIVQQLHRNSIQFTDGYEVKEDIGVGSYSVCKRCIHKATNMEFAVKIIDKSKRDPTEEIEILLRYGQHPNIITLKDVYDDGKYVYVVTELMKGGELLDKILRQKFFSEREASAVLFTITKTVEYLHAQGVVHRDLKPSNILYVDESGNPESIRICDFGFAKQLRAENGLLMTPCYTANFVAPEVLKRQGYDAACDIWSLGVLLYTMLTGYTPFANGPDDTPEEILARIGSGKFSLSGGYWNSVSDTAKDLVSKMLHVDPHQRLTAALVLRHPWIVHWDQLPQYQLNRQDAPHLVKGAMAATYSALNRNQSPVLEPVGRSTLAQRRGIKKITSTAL

## Cc1cc(S(=O)(=O)NCCOCCOCCOCCOCCNc2cccc3c2C(=O)N(C2CCC(=O)NC2=O)C3=O)ccc1Nc1ncc(Br)c(Nc2cccc(F)c2C(N)=O)n1 (centres unmarked) [TMX.02.172]
[1]
  logFC AURKA (O14965): −2.402
[2]
  logFC: −1.302
  logFC CDK1: −1.302
[3]
  logFC CDK2 (P24941-1): −2.199
[3]; direction of change down
  logFC CDK2 (P24941-1): −2.199
[4]; Accession P33981
  logFC TTK: −0.7542
[4]
  logFC TTK (P33981): −0.7542
[5]
  logFC: −1.091
  logFC MAPK9: −1.091
[6]
  logFC: −0.8349
[6]; direction down
  logFC: −0.8349
[7]
  logFC CDK5 (Q00535): −2.878
[7]; direction of change down
  logFC CDK5 (Q00535): −2.878
[8]
  logFC: −0.7381
  logFC PTK2: −0.7381
[9]
  logFC: −1.295
[9]; direction down
  logFC: −1.295
[10]; [19]
  logFC: −0.4856
  logFC AURKB: −0.4856
[10]; Experiment wp146, direction down
  logFC MAPK8 (P45983-4): −0.5524
[10]; MAPK8 P45983-4, experiment wp146
  logFC MAPK8: −0.5524
[10]; RPS6KA1 (Q15418-2), experiment wp146
  logFC RPS6KA1: −1.351
[10]; experiment wp146
  logFC RPS6KA1 (Q15418-2): −1.351

## Cc1ncsc1-c1ccc([C@H](C)NC(=O)[C@@H]2C[C@@H](O)CN2C(=O)[C@@H](NC(=O)CCCCOc2ccccc2-c2ccc3nc(-c4cccnc4N)n(-c4ccc(C5(N)CCC5)cc4)c3n2)C(C)(C)C)cc1 [INY.04.125.01]
[11]
  logFC: −0.4176
  logFC LATS1: −0.4176
[12]; experiment wp195
  logFC: −0.4084
  logFC STK17A: −0.4084
[13]; experiment wp195
  logFC IP6K2: −0.4946

## C[C@@H]1C[C@@H](O)c2ncnc(N3CCN(C(=O)[C@H](CNCCCCCCCCCCc4cccc5c4C(=O)N(C4CCC(=O)NC4=O)C5=O)c4ccc(Cl)cc4)CC3)c21 (some centres unmarked) [INY.03.041_01]
[14]
  logFC CDK4 (P11802): −0.3281
[15]; AKT1 (P31749), experiment wp135, 8 hr
  logFC: −2.273
[15]; experiment wp135, 8 hr
  logFC of AKT1 (P31749): −2.273
[16]
  logFC: −2.274
[16]; direction down
  logFC: −2.274
[12]; experiment wp135, 8 hr
  logFC: −0.497
[17]
  logFC: −2.215
[17]; direction down
  logFC: −2.215
[13]; experiment wp135, 8 hr
  logFC IP6K2: −0.6456

## CC(=O)c1c(C)c2cnc(Nc3ccc(N4CCN(CCOCCOCCOCCNC(=O)COc5cccc6c5C(=O)N(C5CCC(=O)NC5=O)C6=O)CC4)cn3)nc2n(C2CCCC2)c1=O (centres unmarked) [BS.J.03.123]
[18]
  logFC TBRG4: −0.5

Source: patent US20240269139A1, “COMPOUNDS FOR TARGETED PROTEIN DEGRADATION OF KINASES” (DANA-FARBER CANCER INSTITUTE, INC., priority 2020, published 2024)
